Target: T1, Akt3 (Homo sapiens, UniProt Q9Y243)
T1 construct: endogenous in cells; host or cells: primary human CD4+/CD45RA+/CD25- naive T cells
Assay: Akt3 inhibition activity of selected compounds
Type: cell-based
Details: Table 1
Experimental: (§1) Human CD4+/CD45RA+/CD25-naïve T cells were plated under induction conditions (IL-2/anti-CD3/anti-CD28+TGFβ) in the absence or presence of compounds for 72 hours. To determine the compounds' specificity for each phospho-AKT isoform, phospho-AKT cellular HTRF kits (Cisbio catalogue numbers 63ADK078PEG (pAKT1), 63ADK080PEG (p-AKT2), and 63ADK082PEG (pAKT3)) were used according to manufacturer specifications. Briefly, after removal of the supernatant, cells were lysed, and total protein concentration measured and normalized for all samples. The cell lysates were transferred into 384-well plates and Eu Cryptate antibody+d2 antibody mixture was added. This process was the same for each isoform but utilized the corresponding isoform antibodies from each respective kit. Positive and negative controls (supplied with the kit) were incorporated into each experiment. The plates were incubated overnight. Data acquisition was performed on the Varioskan Lux reader utilizing the settings for the TRF fluorescence protocol. Data was presented as percent change over DMSO-treated controls. Each test condition was run in duplicate, and the assay was performed at least twice.

T1 sequence (Q9Y243 whole entry): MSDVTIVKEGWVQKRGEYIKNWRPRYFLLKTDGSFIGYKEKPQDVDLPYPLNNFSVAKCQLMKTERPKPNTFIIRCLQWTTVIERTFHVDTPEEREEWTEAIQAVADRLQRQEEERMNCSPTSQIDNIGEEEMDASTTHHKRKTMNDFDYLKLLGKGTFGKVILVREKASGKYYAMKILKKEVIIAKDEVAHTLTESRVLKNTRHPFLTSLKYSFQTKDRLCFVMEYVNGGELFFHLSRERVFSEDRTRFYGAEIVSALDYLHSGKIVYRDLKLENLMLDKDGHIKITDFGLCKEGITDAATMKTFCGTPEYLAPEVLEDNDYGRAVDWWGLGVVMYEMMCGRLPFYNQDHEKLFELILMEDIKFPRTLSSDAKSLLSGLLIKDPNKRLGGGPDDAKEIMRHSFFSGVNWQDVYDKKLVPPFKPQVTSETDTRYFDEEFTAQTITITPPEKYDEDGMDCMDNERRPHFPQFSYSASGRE

SMILES | IC50
C#Cc1ccc2nccc(Nc3cccc(C(=O)Nc4cccc(Nc5ccncc5)c4)c3)c2c1 [Compound 4, 3-((6-ethynylquinolin-4-yl)amino)-N-(3-(pyridin-4-ylamino)phenyl)benzamide] | < 1 µM
[N-]=[N+]=Nc1ccc2nccc(Nc3cccc(C(=O)Nc4cccc(Nc5ccncc5)c4)c3)c2c1 [Compound 5, 3-((6-azidoquinolin-4-yl)amino)-N-(3-(pyridin-4-ylamino)phenyl)benzamide] | < 1 µM
O=C(Nc1cccc(Oc2ccncc2)c1)c1cccc(Nc2ccnc3ccc(F)cc23)c1 [Compound 10, 3-((6-fluoroquinolin-4-yl)amino)-N-(3-(pyridin-4-yloxy)phenyl)benzamide] | < 0.5 µM
O=C(Nc1cccc(Nc2ccncc2)n1)c1cccc(Nc2ccnc3ccc(F)cc23)c1 [Compound 21, 3-((6-fluoroquinolin-4-yl)amino)-N-(6-(pyridin-4-ylamino)pyridin-2-yl)benzamide] | < 2 µM
O=C(Nc1cc(Nc2ccncc2)ccn1)c1cccc(Nc2ccnc3ccccc23)c1 [Compound 38, N-(4-(pyridin-4-ylamino)pyridin-2-yl)-3-(quinolin-4-ylamino)benzamide] | < 1 µM
O=C(c1cccc(Nc2ccnc3ccc(F)cc23)c1)N1CCc2c(Nc3ccncc3)cccc21 [Compound 67, (3-((6-fluoroquinolin-4-yl)amino)phenyl)(4-(pyridin-4-ylamino)indolin-1-yl)methanone] | < 2 µM
O=C(Nc1cccc(Nc2ccccc2)c1)c1cccc(Nc2ccncc2)c1 [Compound 97, N-(3-(phenylamino)phenyl)-3-(pyridin-4-ylamino)benzamide] | < 5 µM
Cc1cc(Nc2cccc(C(=O)Nc3cccc(Nc4ccccc4)c3)c2)ccn1 [Compound 99, 3-((2-methylpyridin-4-yl)amino)-N-(3-(phenylamino)phenyl)benzamide] | < 2 µM
O=C(Nc1cc(Oc2ccccc2)ccn1)c1cccc(Nc2ccncc2)c1 [Compound 107, N-(4-phenoxypyridin-2-yl)-3-(pyridin-4-ylamino)benzamide] | < 5 µM
O=C(Nc1cccc(Nc2ccncc2)n1)c1cccc(Nc2ccncc2)c1 [Compound 108, 3-(pyridin-4-ylamino)-N-(6-(pyridin-4-ylamino)pyridin-2-yl)benzamide] | < 5 µM
Cc1cc(Nc2cccc(C(=O)Nc3cccc(Nc4ccccc4)c3)c2)ccn1 [Compound 109, 3-((2-methylpyridin-4-yl)amino)-N-(3-(phenylamino)phenyl)benzamide] | < 1 µM
O=C1c2ccc(Nc3ccncc3)cc2CN1c1cccc(Nc2ccncc2)c1 [Compound 110, 5-(pyridin-4-ylamino)-2-(3-(pyridin-4-ylamino)phenyl)isoindolin-1-one] | < 0.5 µM
N#Cc1nccc(Nc2cccc(NC(=O)c3cccc(Nc4ccnc5ccc(F)cc45)c3)c2)c1C(F)(F)F [Compound 112, N-(3-(2-cyano-3-(trifluoromethyl)pyridin-4-ylamino)phenyl)-3-(6-fluoroquinolin-4-ylamino)benzamide] | < 5 µM
N#Cc1cc(Nc2cccc(NC(=O)c3cccc(Nc4ccnc5ccc(F)cc45)c3)c2)ccn1 [Compound 113, N-(3-(2-cyanopyridin-4-ylamino)phenyl)-3-(6-fluoroquinolin-4-ylamino)benzamide] | < 1 µM
Cc1cc(Nc2ccc3c(c2)CN(c2cccc(Nc4ccncc4)c2)C3=O)ccn1 [Compound 114, 5-(2-methylpyridin-4-ylamino)-2-(3-(pyridin-4-ylamino)phenyl)isoindolin-1-one] | < 1 µM
Cc1cc(Nc2ccc3c(c2)CN(c2cccc(Nc4cccc(F)c4)c2)C3=O)ccn1 [Compound 118, 2-(3-(3-fluorophenylamino)phenyl)-5-(2-methylpyridin-4-ylamino)isoindolin-1-one] | < 0.5 µM
Cc1nccc(Nc2ccc3c(c2)CN(c2cccc(Nc4ccncc4)c2)C3=O)c1Cl [Compound 119, 5-(3-chloro-2-methylpyridin-4-ylamino)-2-(3-(pyridin-4-ylamino)phenyl)isoindolin-1-one] | < 2 µM
Cc1cc(Nc2ccc3c(c2)CN(c2cccc(Nc4ccc(F)cc4)c2)C3=O)ccn1 [Compound 120, 2-(3-(4-fluorophenylamino)phenyl)-5-(2-methylpyridin-4-ylamino)isoindolin-1-one] | < 0.1 µM
Cc1cc(Nc2cccc(C(=O)Nc3cc(Nc4ccncc4)ccn3)c2)cc(N)n1 [Compound 125, 3-(2-amino-6-methylpyridin-4-ylamino)-N-(4-(pyridin-4-ylamino)pyridin-2-yl)benzamide] | < 5 µM
O=C(Nc1cc(Nc2ccncc2)ccn1)c1cccc(Nc2cccc3ncccc23)c1 [Compound 126, N-(4-(pyridin-4-ylamino)pyridin-2-yl)-3-(quinolin-5-ylamino)benzamide] | < 1 µM
Cc1c(Nc2cccc(C(=O)Nc3cc(Nc4ccncc4)ccn3)c2)ccnc1N [Compound 127, 3-(2-amino-3-methylpyridin-4-ylamino)-N-(4-(pyridin-4-ylamino)pyridin-2-yl)benzamide] | < 5 µM
Nc1cc(Nc2cccc(C(=O)Nc3cc(Nc4ccncc4)ccn3)c2)ccn1 [Compound 128, 3-(2-aminopyridin-4-ylamino)-N-(4-(pyridin-4-ylamino)pyridin-2-yl)benzamide] | < 5 µM
Cc1c(Nc2cccc(C(=O)Nc3cccc(Nc4ccccc4)c3)c2)ccnc1N [Compound 129, 3-(2-amino-3-methylpyridin-4-ylamino)-N-(3-(phenylamino)phenyl)benzamide] | < 5 µM
Nc1cc(Nc2cccc(C(=O)Nc3cccc(Nc4ccccc4)c3)c2)ccn1 [Compound 130, 3-(2-aminopyridin-4-ylamino)-N-(3-(phenylamino)phenyl)benzamide] | < 1 µM
Cc1cc(Nc2cccc(C(=O)Nc3cccc(Nc4ccccc4)c3)c2)cc(N)n1 [Compound 131, 3-(2-amino-6-methylpyridin-4-ylamino)-N-(3-(phenylamino)phenyl)benzamide] | < 10 µM
O=C1c2ccc(Nc3ccncc3)cc2CN1c1cccc(NC2CCCC2)c1 [Compound 132, 2-(3-(cyclopentylamino)phenyl)-5-(pyridin-4-ylamino)isoindolin-1-one] | < 1 µM

Target: T1, Akt3
Assay: Akt3 activation activity of selected compounds
Type: cell-based
Details: Table 2
Experimental: as §1

SMILES | IC50
CS(=O)(=O)c1ccc2nccc(Nc3cccc(C(=O)Nc4cccc(Nc5ccncc5)c4)c3)c2c1 [Compound 3, 3-((6-(methylsulfonyl)quinolin-4-yl)amino)-N-(3-(pyridin-4-ylamino)phenyl)benzamide] | < 5 µM
N#Cc1ccc2nccc(Nc3cccc(C(=O)Nc4cccc(Nc5ccncc5)c4)c3)c2c1 [Compound 6, 3-((6-cyanoquinolin-4-yl)amino)-N-(3-(pyridin-4-ylamino)phenyl)benzamide] | < 2 µM
N#Cc1ccc2nccc(Nc3cccc(C(=O)Nc4cc(Nc5ccncc5)ccn4)c3)c2c1 [Compound 26, 3-((6-cyanoquinolin-4-yl)amino)-N-(4-(pyridin-4-ylamino)pyridin-2-yl)benzamide] | < 5 µM
CN(C)c1ccc2nccc(Nc3cccc(C(=O)Nc4cccc(Nc5ccncc5)c4)c3)c2c1 [Compound 31, 3-((6-(dimethylamino)quinolin-4-yl)amino)-N-(3-(pyridin-4-ylamino)phenyl)benzamide] | < 1 µM
Cc1cc(Nc2cccc(NC(=O)c3cccc(Nc4ccnc5ccc(N(C)C)cc45)c3)c2)ccn1 [Compound 59, 3-((6-(dimethylamino)quinolin-4-yl)amino)-N-(3-((2-methylpyridin-4-yl)amino)phenyl)benzamide] | < 1 µM
Cc1cc(Nc2ccnc(NC(=O)c3cccc(Nc4ccnc5ccc(N(C)C)cc45)c3)c2)ccn1 [Compound 61, 3-((6-(dimethylamino)quinolin-4-yl)amino)-N-(4-((2-methylpyridin-4-yl)amino)pyridin-2-yl)benzamide] | < 1 µM
Cc1cc(Oc2cccc(NC(=O)c3cncc(Nc4ccnc5ccc(N(C)C)cc45)c3)c2)ccn1 [Compound 65, 5-((6-(dimethylamino)quinolin-4-yl)amino)-N-(3-((2-methylpyridin-4-yl)oxy)phenyl)nicotinamide] | < 2 µM
N#Cc1ccc2nccc(Nc3cccc(-c4nc5ccc(Nc6ccncc6)nc5[nH]4)c3)c2c1 [Compound 106, 4-((3-(5-(pyridin-4-ylamino)-3H-imidazo[4,5-b]pyridin-2-yl)phenyl)amino)quinoline-6-carbonitrile] | < 2 µM
